In assay [1] the target is RAC-alpha serine/threonine-protein kinase (Homo sapiens, UniProt P31749). Nature of the assay: Inhibition of AKT phosphorylation in human K562 cells. In kind it is cell-based.
In assay [2] the test system is MCF7. Nature of the assay: Cytotoxicity against human MCF7 cells assessed as reduction in cell viability after 68 hrs by MTT assay. The class given is functional, cell-based. Conditions: MCF7, 68 h. (Tetrazolium assays rely on reduction of a dye to a coloured formazan, in cell work by metabolically active cells.)
The subject of assay [3] is HeLa. Nature of the assay: Cytotoxicity against human HeLa cells assessed as reduction in cell viability after 68 hrs by MTT assay. The class given is functional, cell-based.
For the next assay, the system named is K562. Nature of the assay: Cytotoxicity against human K562 cells assessed as reduction in cell viability after 68 hrs by MTT assay. The class given is functional, cell-based. The following applies: K562, 68 h.
In assay [4] the test system is A549. Nature of the assay: Cytotoxicity against human A549 cells assessed as reduction in cell viability after 68 hrs by MTT assay. The class given is functional, cell-based. Conditions: A549, 68 h.
In the next assay the test system is NCI-H157. Nature of the assay: Cytotoxicity against human NCI-H157 cells assessed as reduction in cell viability after 48 hrs by SRB assay. In kind it is functional, cell-based. The following applies: NCI-H157, 48 h. A general note: Sulforhodamine B stains cellular protein and so reports cell mass.
For another assay, the system named is BHK-21. Nature of the assay: Cytotoxicity against BHK21 cells assessed as reduction in cell viability after 48 hrs by SRB assay. The following applies: Mesocricetus auratus, BHK-21, 48 h. In kind it is cell-based.
In assay [5] the test system is HepG2. Nature of the assay: Cytotoxicity against human HepG2 cells assessed as reduction in cell viability. The class given is functional, cell-based.
The test system of a further assay is DLD-1. Nature of the assay: Cytotoxicity against human DLD1 cells assessed as reduction in cell viability. In kind it is functional, cell-based.
The test system of assay [6] is HeLa. Nature of the assay: Antiproliferative activity against human HeLa cells by MTT assay. The class given is functional, cell-based.
In assay [7] the test system is MCF7. Nature of the assay: Cytotoxicity against human MCF7 cells assessed as reduction in cell viability by SRB assay. In kind it is functional, cell-based.
A short description of assay [8]: Cytotoxicity against human MCF7/DX cells assessed as reduction in cell viability by SRB assay. In kind it is functional, cell-based.
The next assay concerns DU-145. Nature of the assay: Cytotoxicity against human DU145 cells assessed as reduction in cell viability by SRB assay. In kind it is functional, cell-based.
Another assay has as its system SK-OV-3. Nature of the assay: Cytotoxicity against human SKOV3 cells assessed as reduction in cell viability by SRB assay. The class given is functional, cell-based.
The subject of assay [9] is A549. Nature of the assay: Cytotoxicity against human A549 cells assessed as reduction in cell viability by SRB assay. In kind it is functional, cell-based.
The subject of assay [10] is HepG2. Nature of the assay: Cytotoxicity against human HepG2 cells assessed as reduction in cell viability by SRB assay. The class given is functional, cell-based.
The subject of assay [11] is HeLa. Nature of the assay: Cytotoxicity against human HeLa cells assessed as reduction in cell viability by SRB assay. In kind it is functional, cell-based.
Assay [12] concerns MCF7. Nature of the assay: Cytotoxicity against human MCF7 cells assessed as reduction in cell viability by MTT assay. Conditions: Homo sapiens, MCF7. The class given is functional, cell-based.

≈ marks a conversion by molar mass, not a printed value.

Chain of RAC-alpha serine/threonine-protein kinase (P31749 whole entry): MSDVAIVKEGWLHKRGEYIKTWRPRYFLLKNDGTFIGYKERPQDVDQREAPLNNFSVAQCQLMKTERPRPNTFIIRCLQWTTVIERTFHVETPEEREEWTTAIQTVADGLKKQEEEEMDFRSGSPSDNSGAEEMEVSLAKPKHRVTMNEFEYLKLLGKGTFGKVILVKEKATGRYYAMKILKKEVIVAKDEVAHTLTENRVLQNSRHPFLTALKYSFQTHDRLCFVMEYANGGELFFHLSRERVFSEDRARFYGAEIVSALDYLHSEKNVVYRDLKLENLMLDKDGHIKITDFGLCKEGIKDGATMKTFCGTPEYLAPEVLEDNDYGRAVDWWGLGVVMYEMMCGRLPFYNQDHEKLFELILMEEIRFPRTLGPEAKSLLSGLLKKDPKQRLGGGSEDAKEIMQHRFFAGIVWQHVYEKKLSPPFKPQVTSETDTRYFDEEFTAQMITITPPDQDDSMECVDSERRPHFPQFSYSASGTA

Turning to `Cc1c(Cc2ccc(NC(=O)Nc3ccccc3Cl)nc2)c(=O)oc2cc(O)c(C(C)(C)C)cc12`, the IC50 in assay [1] was less than 10 µM; in the assay on MCF7 [2] it was 1.66 to 9.27 µM; in the assay on HeLa [3], 1.66 to 9.27 µM; with K562 it was 1.66 to 9.27 µM; with A549 [4], 1.66 to 9.27 µM.
For the molecule `COc1ccc(C2=Nn3c(nnc3-c3cc4ccccc4oc3=O)SC2)cc1`, the IC50 with NCI-H157 and in the assay on BHK-21 was 1.01 to 5.72 µM throughout.
As to `CNc1ncc(C(=O)c2cc3ccccc3oc2=O)s1`, the IC50 in the assay on HepG2 [5] and in the assay on DLD-1 was 5.66 to 100 µg/mL (≈ 19.8 to 349 µM) in each case.
For the molecule `COC(=O)c1sc(N/N=C(\C)c2cc3ccccc3oc2=O)nc1C`, the IC50 with HeLa [6] was 0.0091 to 0.569 µM.
Take `CO/N=C1\C(=O)N(CCOCCOc2ccc3c(C)cc(=O)oc3c2)c2ccc(F)cc21`: the IC50 (in the assay with MCF7 [7]; in assay [8]; with DU-145; with SK-OV-3; in the assay with A549 [9]; with HepG2 [10]) was 10.3 to 50 µM each time. Also, the IC50 in the assay with HeLa [11] was in the range of 10.3 to 50 µM.
In the case of `Cc1cc(=O)oc2cc(OCCOCCN3C(=O)/C(=N\O)c4ccccc43)ccc12`, the IC50 (in the assay on MCF7 [7]; in [8]; with DU-145; with SK-OV-3; in the assay with A549 [9]; in the assay on HepG2 [10]) was 10.3 to 50 µM each time. In addition, the IC50 with HeLa [11] was in the range of 10.3 to 50 µM.
Take `COC(=O)c1sc(N/N=C(\C)c2cc3cc(Br)ccc3oc2=O)nc1C`: the IC50 with HeLa [6] was in the range of 0.0091 to 0.569 µM.
Take `CO/N=C1\C(=O)N(CCOCCOc2ccc3c(C)cc(=O)oc3c2)c2ccc(Cl)cc21`: the IC50 (with MCF7 [7]; in assay [8]; in the assay with DU-145; in the assay with SK-OV-3; in the assay with A549 [9]; with HepG2 [10]) was 10.3 to 50 µM in each case. Moreover, the IC50 in the assay with HeLa [11] was 10.3 to 50 µM.
As for `O=c1oc2ccccc2cc1-c1nnc2n1N=C(c1ccc(Br)cc1)CS2`, the IC50 in the assay on NCI-H157 and in the assay on BHK-21 was 1.01 to 5.72 µM throughout.
Consider `C/C(=N\Nc1ncc(C(=O)c2cc3ccccc3oc2=O)s1)c1ccc(C)cc1`, for which the half-maximal effective concentration (EC50) in the assay on HepG2 [5] and with DLD-1 was 3.7 to 9.54 µg/mL (≈ 9.17 to 23.6 µM) each time.
With `Cc1cc(=O)oc2cc(OCCOCCN3C(=O)C(=O)c4cc(F)ccc43)ccc12`, the IC50 (in the assay with MCF7 [7]; in assay [8]; in the assay on DU-145; with SK-OV-3; with A549 [9]; in the assay with HepG2 [10]) was 10.3 to 50 µM in each case. Moreover, the IC50 with HeLa [11] fell in the range of 10.3 to 50 µM.
For `C/C(=N\Nc1ncc(C(=O)c2cc3ccccc3oc2=O)s1)c1ccccc1`, the EC50 in the assay on HepG2 [5] and with DLD-1 was 3.7 to 9.54 µg/mL (≈ 9.5 to 24.5 µM) each time.
`COc1ccc(NC(=O)Nc2ccc(Cc3c(C)c4cc(C(C)(C)C)c(O)cc4oc3=O)cn2)cc1`: the IC50 in assay [1] was less than 10 µM; with MCF7 [2] it was 1.66 to 9.27 µM; in the assay with HeLa [3], 1.66 to 9.27 µM; in the assay on K562, 1.66 to 9.27 µM; in the assay on A549 [4], 1.66 to 9.27 µM.
For the molecule `Cc1cc(=O)oc2cc(/N=N/c3ccccc3)c(O)c(/N=N/c3ccccc3)c12`, the IC50 with MCF7 [12] was determined as 1.87 µg/mL (≈ 4.86 µM).
As to `C=CCNc1ncc(C(=O)c2cc3ccccc3oc2=O)s1`, the IC50 in the assay with HepG2 [5] and in the assay on DLD-1 was 5.66 to 100 µg/mL (≈ 18.1 to 320 µM) each time.
For the molecule `CC(=O)c1ccc(C2=Nn3c(nnc3-c3cc4ccccc4oc3=O)SC2)cc1`, the IC50 in the assay on NCI-H157 and in the assay with BHK-21 was 1.01 to 5.72 µM in each case.
With `CO/N=C1\C(=O)N(CCOCCOc2ccc3c(C)cc(=O)oc3c2)c2ccccc21`, the IC50 (in the assay with MCF7 [7]; in assay [8]; in the assay with DU-145; with SK-OV-3; with A549 [9]; in the assay with HepG2 [10]) was 10.3 to 50 µM in each case. Also, in the assay on HeLa [11], the concentration for half-maximal inhibition (IC50) lay in the range of 10.3 to 50 µM.
On to `CO/N=C1\C(=O)N(CCOCCOc2ccc3c(C)cc(=O)oc3c2)c2ccc(C)cc21`, for which the IC50 (in the assay on MCF7 [7]; in assay [8]; in the assay on DU-145; in the assay on SK-OV-3; with A549 [9]; with HepG2 [10]) was 10.3 to 50 µM each time. In addition, the IC50 with HeLa [11] lay within 10.3 to 50 µM.
For the molecule `Cc1ccc2c(c1)/C(=N/O)C(=O)N2CCOCCOc1ccc2c(C)cc(=O)oc2c1`, the IC50 (with MCF7 [7]; in assay [8]; in the assay on DU-145; in the assay on SK-OV-3; with A549 [9]; with HepG2 [10]) was 10.3 to 50 µM in each case. For the same molecule, the IC50 in the assay on HeLa [11] was 10.3 to 50 µM.
As for `Cc1cc(=O)oc2cc(OCCOCCN3C(=O)C(=O)c4cc(Cl)ccc43)ccc12`, the IC50 (with MCF7 [7]; in [8]; with DU-145; in the assay on SK-OV-3; in the assay on A549 [9]; in the assay with HepG2 [10]) was 10.3 to 50 µM each time. Moreover, the 50% inhibitory concentration (IC50) in the assay with HeLa [11] was in the range of 10.3 to 50 µM.
Regarding `O=C(c1cnc(Nc2ccccc2)s1)c1cc2ccccc2oc1=O`, the IC50 in the assay with HepG2 [5] and in the assay on DLD-1 was 5.66 to 100 µg/mL (≈ 16.2 to 287 µM) each time.
With `CC[C@]1(O)C[C@H]2CN(CCc3c([nH]c4ccccc34)[C@@](C(=O)OC)(c3cc4c(cc3OC)N(C=O)[C@H]3[C@@](O)(C(=O)OC)[C@H](OC(C)=O)[C@]5(CC)C=CCN6CC[C@]43[C@@H]65)C2)C1` [VINCRISTINE], the IC50 in the assay with NCI-H157 stood at 1.03 µM; in the assay on BHK-21 it was 1.08 µM.

For orientation: IC50 means the concentration at which inhibition is half-maximal. One may read the EC50 as the concentration at which the effect is half-maximal.
